Assay [1] has as its target MTP (Homo sapiens, UniProt P55157). As to the kind of experiment: MTP assay (triglyceride transfer from donor to acceptor vesicles). The format is biochemical. As to conditions: MTP activity, 37° C. As for the experimental part: MTP activity was measured using an assay similar to one described by J. R. Wetterau and D. B. Zilversmit in Chemistry and Physics of Lipids (1985) 38, 205-222. In order to prepare the donor and acceptor vesicles, the appropriate lipids in chloroform were put into a glass test tube and dried under a stream of nitrogen. A buffer containing 15 mM Tris-HCl (pH 7.5), 1 mM ethylenediamine tetra-acetic acid, 40 mM NaCl, 0.02% NaN3 (assay buffer) was added to the dried lipid. The mixture was vortexed briefly and the lipids were then allowed to hydrate for 20 minutes on ice. Vesicles were then prepared by bath sonication (using a Branson 2200 device) at room temperature for at most 15 minutes. Butylated hydroxytoluene was included in all vesicle preparations at a concentration of 0.1%. The lipid transfer assay mixture contained donor vesicles (40 nmole phosphatidylcholine, 7.5 mole % cardiolipin and 0.25 mole % glycerol tri[1-^14C]-oleate), acceptor vesicles (240 nmol phosphatidylcholine) and 5 mg bovine serum albumin in a total volume of 675 μl in a 1.5 ml microcentrifuge tube. Test compounds were added dissolved in dimethylsulfoxide (0.13% final concentration). After 5 minutes of pre-incubation at 37° C., the reaction was started by the addition of MTP in 100 μl of a dialysis buffer. The reaction was stopped by the addition of 400 μl […] (DEAE)-52 cellulose (Sephadex) pre-equilibrated in 15 mM Tris-HCl (pH 7.5), 1 mM ethylenediamine tetra-acetic acid and 0.02% NaN3 (1:1 volume/volume). The mixture was agitated for 4 minutes and centrifuged for 2 minutes at maximum speed in an Eppendorf centrifuge (4° C.) to pellet the DEAE-52-bound donor vesicles. An aliquot of the supernatant containing the acceptor liposomes was counted and the [^14C]-counts were used to calculate the percent triglyceride transfer from donor to acceptor vesicles.
Resulting IC50 values are enumerated in Table C.2 for some of the above-referred compounds.

Assay [2] concerns ApoB secretion, HepG2 cells. Description: Quantification of the secretion of ApoB (HepG2 cells, immunoprecipitation, scintillation counting). It counts as cell-based. The conditions noted are these: 24 hours of incubation; for IC50: Homo sapiens, HepG2, 24 h. The essentials: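 HepG2 cells in MEM Rega 3 with 10% FCS were treated at 70% confluency with compound (DMSO 0.4% final) for 24 h. Medium ApoB was immunoprecipitated with sheep anti-apoB then rabbit anti-sheep antibody (24 h each, 8° C), and pellet radioactivity was counted by liquid scintillation to give IC50.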

Sequence of MTP (P55157 19-894, species assumed): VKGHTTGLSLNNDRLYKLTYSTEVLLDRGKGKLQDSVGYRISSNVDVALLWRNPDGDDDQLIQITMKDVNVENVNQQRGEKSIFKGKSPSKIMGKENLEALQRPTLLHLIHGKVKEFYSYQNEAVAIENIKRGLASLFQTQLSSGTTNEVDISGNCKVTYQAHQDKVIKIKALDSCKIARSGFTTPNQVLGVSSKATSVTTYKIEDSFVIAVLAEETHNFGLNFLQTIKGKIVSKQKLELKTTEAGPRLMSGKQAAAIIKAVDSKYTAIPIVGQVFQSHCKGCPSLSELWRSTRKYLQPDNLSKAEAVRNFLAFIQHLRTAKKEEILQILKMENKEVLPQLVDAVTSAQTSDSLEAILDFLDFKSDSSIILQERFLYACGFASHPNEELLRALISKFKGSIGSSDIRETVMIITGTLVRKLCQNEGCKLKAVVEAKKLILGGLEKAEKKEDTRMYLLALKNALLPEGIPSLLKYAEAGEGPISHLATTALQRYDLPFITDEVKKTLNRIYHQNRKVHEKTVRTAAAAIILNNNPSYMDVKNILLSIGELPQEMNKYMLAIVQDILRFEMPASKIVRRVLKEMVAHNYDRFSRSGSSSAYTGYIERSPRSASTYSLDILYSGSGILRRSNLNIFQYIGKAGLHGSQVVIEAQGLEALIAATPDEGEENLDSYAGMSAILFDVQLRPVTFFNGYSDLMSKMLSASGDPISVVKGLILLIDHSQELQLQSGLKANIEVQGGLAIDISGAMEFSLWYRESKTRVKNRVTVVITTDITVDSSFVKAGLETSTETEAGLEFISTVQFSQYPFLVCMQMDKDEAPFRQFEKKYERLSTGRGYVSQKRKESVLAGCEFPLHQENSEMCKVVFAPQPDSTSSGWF
Sequence of MTP (P07237 18-508 partner, species assumed): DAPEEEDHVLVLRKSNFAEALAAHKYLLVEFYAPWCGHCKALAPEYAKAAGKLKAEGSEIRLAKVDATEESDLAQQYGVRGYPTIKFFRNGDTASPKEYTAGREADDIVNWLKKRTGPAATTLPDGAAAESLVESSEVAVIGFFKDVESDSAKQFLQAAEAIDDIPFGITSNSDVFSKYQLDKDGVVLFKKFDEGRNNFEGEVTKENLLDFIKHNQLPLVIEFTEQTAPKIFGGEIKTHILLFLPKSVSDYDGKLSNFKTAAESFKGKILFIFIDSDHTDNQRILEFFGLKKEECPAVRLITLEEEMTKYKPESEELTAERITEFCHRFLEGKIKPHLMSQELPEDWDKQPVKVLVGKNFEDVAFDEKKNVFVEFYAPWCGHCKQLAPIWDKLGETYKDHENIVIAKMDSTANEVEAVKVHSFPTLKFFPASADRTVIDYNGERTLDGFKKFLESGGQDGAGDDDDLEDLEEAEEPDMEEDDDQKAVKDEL

In the case of `COC(=O)C(c1ccccc1)C1CCN(c2ccc(NC(=O)c3ccccc3-c3ccc(C(C)C)cc3)cc2)CC1` (stereo not shown) [Co. No. 232], the IC50 is 25 nM in assay [1] and < 30 nM in assay [2].

For `COC(=O)C(c1ccccc1)N1CCN(c2ccc(NC(=O)c3ccccc3-c3ccc(C(F)(F)F)cc3)cc2)CC1` (stereo not shown) [Co. No. 239], the IC50 in assay [1] is 1.98 nM. The pIC50 in assay [2] (listed as 239) is given as 7.855.

The molecule `COC(=O)C(c1ccccc1)C1CCN(c2ccc(NC(=O)c3ccccc3-c3ccc(C(F)(F)F)cc3)cc2)CC1` (stereo not shown) [Co. No. 241] had an IC50 in assay [1] of 10.4 nM. The pIC50 in assay [2] (listed as 241) worked out at 7.578.

On to `CCCNC(=O)C(c1ccccc1)N1CCN(c2ccc(NC(=O)c3ccccc3-c3ccc(C(F)(F)F)cc3)cc2)CC1` (stereo not shown) [Co. No. 55], for which the IC50 in assay [1] is 4.27 nM; in assay [2], ≤ 30 nM.

With `O=C(Nc1ccc(N2CCN(C(C(=O)NCc3ccccc3)c3ccccc3)CC2)cc1)c1ccccc1-c1ccc(C(F)(F)F)cc1` (stereo not shown) [Co. No. 61], the IC50 in assay [1] was 4.79 nM; in assay [2], 3.85 nM.

In the case of `O=C(Nc1ccc(N2CCC(C(C(=O)NCc3ccccc3)c3ccccc3)CC2)cc1)c1ccccc1-c1ccc(C(F)(F)F)cc1` (stereo not shown) [Co. No. 11], the values for the IC50 in assay [1] and in assay [2] were 7.31 nM and 4.62 nM, respectively.

For `COC(=O)C(c1ccccc1)N1CCC(c2ccc(NC(=O)c3ccccc3-c3ccc(C(F)(F)F)cc3)cc2)CC1` (single isomer, unassigned) [Co. No. 230], the midpoint of inhibition in assay [1], the IC50, lay at 3.64 nM. The pIC50 in assay [2] came to 8.31.

For the molecule `O=C(Nc1ccc(N2CCC(C(C(=O)NCc3ccccc3)c3ccccc3)CC2)cc1)c1ccccc1-c1ccccc1` (stereo not shown) [Co. No. 3], the IC50 in assay [1] is 18.4 nM; in assay [2] it was 25.6 nM.

Molecule `CCOC(=O)C(c1ccccc1)N1CCC(c2ccc(NC(=O)c3ccccc3-c3ccc(C(F)(F)F)cc3)cc2)CC1` (single isomer, unassigned) [Co. No. 264] gave an IC50 in assay [1] of 31.8 nM.

Consider `CC(C)CNC(=O)C(c1ccccc1)N1CCN(c2ccc(NC(=O)c3ccccc3-c3ccc(C(F)(F)F)cc3)cc2)CC1` (stereo not shown) [Co. No. 58], for which the IC50 in assay [1] is 15.9 nM; in assay [2] it was ≤ 30 nM.

With `O=C(Nc1ccc(N2CCC(C(C(=O)NCc3ccccc3)c3ccccc3)CC2)cc1)c1ccccc1COc1ccccc1` (stereo not shown) [Co. No. 7], the IC50 in assay [1] is 363 nM; in assay [2], 261 nM.

For `C=CCNC(=O)C(c1ccccc1)N1CCN(c2ccc(NC(=O)c3ccccc3-c3ccc(C(F)(F)F)cc3)cc2)CC1` (stereo not shown) [Co. No. 57], the figures for the IC50 in assay [1] and in assay [2] were 6.87 nM and 7.57 nM, respectively.

Turning to `O=C(Nc1ccc(N2CCN(C(C(=O)NCc3ccccn3)c3ccccc3)CC2)cc1)c1ccccc1-c1ccc(C(F)(F)F)cc1` (stereo not shown) [Co. No. 60], the figures for the IC50 in assay [1] and in assay [2] were 8.28 nM and ≤ 30 nM, respectively.

In assay [1], `COC(=O)C(c1ccccc1)C1CCN(c2ccc(NC(=O)c3ccccc3-c3ccc(C(C)(C)C)cc3)cc2)CC1` (stereo not shown) [Co. No. 203] showed an IC50 of 2.08 nM. The molecule also yielded a pIC50 in assay [2] (listed as 203) of 8.333.

For the molecule `CCCNC(=O)C(c1ccccc1)C1CCN(c2ccc(NC(=O)c3ccccc3CSc3ccccc3)cc2)CC1` (stereo not shown) [Co. No. 16], the IC50 in assay [1] was 208 nM; in assay [2] it was 83.8 nM.

On to `CCNC(=O)C(c1ccccc1)N1CCN(c2ccc(NC(=O)c3cccc(C)c3-c3ccc(C(F)(F)F)cc3)cc2)CC1` (stereo not shown) [Co. No. 199], for which the IC50 in assay [1] was 4.63 nM.

Regarding `CCOC(=O)C(c1ccccc1)N1CCC(c2ccc(NC(=O)c3ccccc3-c3ccc(C(F)(F)F)cc3)cc2)CC1` (stereo not shown) [Co. No. 222], the results for the IC50 in assay [1] and in assay [2] were 8.41 nM and 19.2 nM, respectively.

Take `COC(=O)C(c1ccccc1)N1CCN(c2ccc(NC(=O)c3ccccc3-c3ccc(C(F)(F)F)cc3)cc2)CC1` (stereo not drawn) [Co. No. 40, methyl α-phenyl-4-[4-[[[4′-(trifluoromethyl)[1,1′-biphenyl]-2-yl]carbonyl]amino]phenyl]-1-piperazineacetate]: the IC50 in assay [1] was 4.53 nM. In addition, the pIC50 in assay [2] (listed as 40) turned out to be 7.586.

For the molecule `CCNC(=O)C(c1ccccc1)C1CCN(c2ccc(NC(=O)c3ccccc3-c3ccc(C(C)(C)C)cc3)cc2)CC1` (stereo not shown) [Co. No. 87], the IC50 was 3.2 nM in assay [1] and 2.05 nM in assay [2].

`CCOC(=O)C(c1ccccc1)N1CCC(c2ccc(NC(=O)c3ccccc3-c3ccc(C(F)(F)F)cc3)cc2)CC1` (single isomer, unassigned) [Co. No. 265] showed an IC50 in assay [1] of 5.62 nM.

In the case of `CCCCCNC(=O)C(c1ccccc1)N1CCC(c2ccc(NC(=O)c3ccccc3-c3ccc(C(F)(F)F)cc3)cc2)CC1` (stereo not shown) [Co. No. 75], the IC50 was 8.38 nM in assay [1] and 11.4 nM in assay [2].

Molecule `COC(=O)C(c1ccccc1)C1CCN(c2ccc(NC(=O)c3ccccc3-c3ccc(C(F)(F)F)cc3)cc2)CC1` (stereo not shown) [Co. No. 242] gave an IC50 in assay [1] of 11.5 nM. Also, in assay [2] (listed as 242), the pIC50 stood at 8.133.

For `O=C(Nc1ccc(N2CCC(C(C(=O)NCc3ccccc3)c3ccccc3)CC2)cc1)c1ccccc1Cc1ccccc1` (stereo not shown) [Co. No. 10], the IC50 is > 3000 nM in assay [1] and 241 nM in assay [2].

In turn, `O=C(Nc1ccc(N2CCC(C(C(=O)Nc3ccccc3)c3ccccc3)CC2)cc1)c1ccccc1-c1ccccc1C(F)(F)F` (stereo not shown) [Co. No. 109] gave an IC50 in assay [2] of 1470 nM.

As to `CC(C)NC(=O)C(c1ccccc1)C1CCN(c2ccc(NC(=O)c3ccccc3OCc3ccccc3)cc2)CC1` (stereo not shown) [Co. No. 26], in assay [2], the IC50 was 275 nM.

Molecule `Cc1ccccc1-c1ccccc1C(=O)Nc1ccc(N2CCC(C(C(=O)Nc3ccccc3)c3ccccc3)CC2)cc1` (stereo not shown) [Co. No. 107] gave an IC50 in assay [2] of 292 nM.

On to `O=C(Nc1ccc(N2CCN(C(C(=O)OCc3ccccc3)c3ccccc3)CC2)cc1)c1ccccc1-c1ccccc1` (stereo not shown) [Co. No. 147], for which inhibition in assay [2] was half-maximal at 287 nM (IC50).

In turn, `C=CCOC(=O)C(c1ccccc1)C1CCN(c2ccc(NC(=O)c3ccccc3-c3ccc(C(F)(F)F)cc3)cc2)CC1` (stereo not shown) [Co. No. 176] showed an IC50 in assay [2] of 134 nM.

As to `Cc1cccc(-c2ccccc2C(=O)Nc2ccc(N3CCC(C(C(=O)Nc4ccccc4)c4ccccc4)CC3)cc2)c1` (stereo not shown) [Co. No. 112], the IC50 in assay [2] is 434 nM.

For `CCCNC(=O)C(c1ccccc1)C1CCN(c2ccc(NC(=O)c3ccccc3-c3cccc4ccccc34)cc2)CC1` (stereo not shown) [Co. No. 42], the IC50 in assay [2] was ≥ 3000 nM.

The molecule `COc1ccc(-c2ccccc2C(=O)Nc2ccc(N3CCC(C(C(=O)Nc4ccccc4)c4ccccc4)CC3)cc2)cc1` (stereo not shown) [Co. No. 116] had an IC50 in assay [2] of 385 nM.

Regarding `CCCCNC(=O)C(c1ccccc1)N1CCC(c2ccc(NC(=O)c3ccccc3-c3ccc(C(F)(F)F)cc3)cc2)CC1` (stereo not shown) [Co. No. 73], in assay [2], half-maximal inhibition (IC50) required 6.08 nM.

The molecule `COC(=O)C(c1ccccc1)N1CCN(c2ccc(NC(=O)c3cc(C)ccc3-c3ccc(C(F)(F)F)cc3)cc2)CC1` (stereo not shown) [Co. No. 189] showed an IC50 in assay [2] of 105 nM.

The molecule `O=C(Nc1ccc(N2CCC(C(C(=O)Nc3ccccc3)c3ccccc3)CC2)cc1)c1ccccc1-c1ccccc1Cl` (stereo not shown) [Co. No. 115] had a half-maximal inhibitory concentration (IC50) in assay [2] of 1710 nM.

For `CCCOC(=O)C(c1ccccc1)N1CCCN(c2ccc(NC(=O)c3ccccc3-c3ccc(C(F)(F)F)cc3)cc2)CC1` (stereo not shown) [Co. No. 121], the IC50 in assay [2] was 2110 nM.

Molecule `O=C(Nc1ccc(N2CCC(C(C(=O)OCc3ccccc3)c3ccccc3)CC2)cc1)c1ccccc1-c1ccccc1` (stereo not shown) [Co. No. 177] gave an IC50 in assay [2] of 261 nM.

With `CCCNC(=O)C(c1ccccc1)C1CCN(c2ccc(NC(=O)c3ccccc3-c3cccc(C(F)(F)F)c3)cc2)CC1` (stereo not shown) [Co. No. 48], the midpoint of inhibition in assay [2], the IC50, lay at 634 nM.

With `CC(C)NC(=O)C(c1ccccc1)N1CCN(c2ccc(NC(=O)c3ccccc3-c3ccc(C(F)(F)F)cc3)cc2)CC1` (stereo not shown) [Co. No. 56], the IC50 in assay [2] is ≤ 30 nM.

The values are drawn from US8354402B2, “Polyarylcarboxamides useful as lipid lowering agents” (Janssen Pharmaceutica N.V., priority 2000, dated 2013).
